Data reported in patent US9273040B2 (Merck Sharp & Dohme Corp., priority 2011, dated 2016).
Read-outs that look alike come from different tables or passages of the source.

Key:
[1] = molecular target: T1, human Nav1.7 channels stably expressed in HEK 293 cells (Homo sapiens, UniProt Q15858); assay: PatchXpress 7000 automated patch-clamp, sodium current; format: cell-based; conditions: 22° C.
T1 construct: expressed in transfected cells
Excerpt: (§1) To measure state and use-dependent sodium channel inhibition, test compounds were further characterized in an automated PatchXpress® assay (Molecular Devices). Two voltage-clamp protocols were used. 1) Use-dependent protocol: Cells were held at a membrane potential 20 mV negative to the potential at which ˜50% of the channels are inactivated (V0.5 inact). A train of 30 ms depolarizations to −20 mV was applied to the cells expressing Nav1.7 at a frequency of 10 Hz. […] Data was collected in the absence and presence of drug, and after drug washout. 2) A double-pulse protocol was used to measure inactivated state block. Cells were held at a potential 20 mV negative to V0.5 inact. A 8000 ms pre-pulse 7 mV positive to V0.5 inact was given followed by a hyperpolarizing 2 ms pulse to −120 mV and a 20 ms test pulse to −20 mV. Protocol was applied to cells in the absence, presence of compound and after washout. The temperature of PatchXpress instruments was maintained at 22° C. The following recording solutions were used. Internal solution (mM): 30 CsCl, 5 HEPES, 10 EGTA, 120 CsF, 5 NaF, 2MgCl2, pH=7.3 with CsOH, 324 mosmo. External solution (mM): 120 NMDG, 40 NaCl, 1 KCl, 0.5 MgCl2, 5 HEPES, 2.7 CaCl2, pH=7.5 with NMDG-OH.
(§2) For all electrophysiology experiments, offline analysis was used to correct for current rundown and to determine percent inhibition as a function of drug concentration. IC50 values were determined by fitting to the Hill equation.

[2] = molecular target: T2, human Nav1.5 channels stably expressed in HEK 293 cells (Homo sapiens, UniProt Q14524); assay: as above; format: cell-based; conditions: selectivity over Nav1.5
T2 construct: expressed in transfected cells
Excerpt: as §1, §2

[3] = read-out: potency for the Nav 1.7 sodium ion channel (as measured by PatchXpress)

T1 sequence (Q15858 whole entry): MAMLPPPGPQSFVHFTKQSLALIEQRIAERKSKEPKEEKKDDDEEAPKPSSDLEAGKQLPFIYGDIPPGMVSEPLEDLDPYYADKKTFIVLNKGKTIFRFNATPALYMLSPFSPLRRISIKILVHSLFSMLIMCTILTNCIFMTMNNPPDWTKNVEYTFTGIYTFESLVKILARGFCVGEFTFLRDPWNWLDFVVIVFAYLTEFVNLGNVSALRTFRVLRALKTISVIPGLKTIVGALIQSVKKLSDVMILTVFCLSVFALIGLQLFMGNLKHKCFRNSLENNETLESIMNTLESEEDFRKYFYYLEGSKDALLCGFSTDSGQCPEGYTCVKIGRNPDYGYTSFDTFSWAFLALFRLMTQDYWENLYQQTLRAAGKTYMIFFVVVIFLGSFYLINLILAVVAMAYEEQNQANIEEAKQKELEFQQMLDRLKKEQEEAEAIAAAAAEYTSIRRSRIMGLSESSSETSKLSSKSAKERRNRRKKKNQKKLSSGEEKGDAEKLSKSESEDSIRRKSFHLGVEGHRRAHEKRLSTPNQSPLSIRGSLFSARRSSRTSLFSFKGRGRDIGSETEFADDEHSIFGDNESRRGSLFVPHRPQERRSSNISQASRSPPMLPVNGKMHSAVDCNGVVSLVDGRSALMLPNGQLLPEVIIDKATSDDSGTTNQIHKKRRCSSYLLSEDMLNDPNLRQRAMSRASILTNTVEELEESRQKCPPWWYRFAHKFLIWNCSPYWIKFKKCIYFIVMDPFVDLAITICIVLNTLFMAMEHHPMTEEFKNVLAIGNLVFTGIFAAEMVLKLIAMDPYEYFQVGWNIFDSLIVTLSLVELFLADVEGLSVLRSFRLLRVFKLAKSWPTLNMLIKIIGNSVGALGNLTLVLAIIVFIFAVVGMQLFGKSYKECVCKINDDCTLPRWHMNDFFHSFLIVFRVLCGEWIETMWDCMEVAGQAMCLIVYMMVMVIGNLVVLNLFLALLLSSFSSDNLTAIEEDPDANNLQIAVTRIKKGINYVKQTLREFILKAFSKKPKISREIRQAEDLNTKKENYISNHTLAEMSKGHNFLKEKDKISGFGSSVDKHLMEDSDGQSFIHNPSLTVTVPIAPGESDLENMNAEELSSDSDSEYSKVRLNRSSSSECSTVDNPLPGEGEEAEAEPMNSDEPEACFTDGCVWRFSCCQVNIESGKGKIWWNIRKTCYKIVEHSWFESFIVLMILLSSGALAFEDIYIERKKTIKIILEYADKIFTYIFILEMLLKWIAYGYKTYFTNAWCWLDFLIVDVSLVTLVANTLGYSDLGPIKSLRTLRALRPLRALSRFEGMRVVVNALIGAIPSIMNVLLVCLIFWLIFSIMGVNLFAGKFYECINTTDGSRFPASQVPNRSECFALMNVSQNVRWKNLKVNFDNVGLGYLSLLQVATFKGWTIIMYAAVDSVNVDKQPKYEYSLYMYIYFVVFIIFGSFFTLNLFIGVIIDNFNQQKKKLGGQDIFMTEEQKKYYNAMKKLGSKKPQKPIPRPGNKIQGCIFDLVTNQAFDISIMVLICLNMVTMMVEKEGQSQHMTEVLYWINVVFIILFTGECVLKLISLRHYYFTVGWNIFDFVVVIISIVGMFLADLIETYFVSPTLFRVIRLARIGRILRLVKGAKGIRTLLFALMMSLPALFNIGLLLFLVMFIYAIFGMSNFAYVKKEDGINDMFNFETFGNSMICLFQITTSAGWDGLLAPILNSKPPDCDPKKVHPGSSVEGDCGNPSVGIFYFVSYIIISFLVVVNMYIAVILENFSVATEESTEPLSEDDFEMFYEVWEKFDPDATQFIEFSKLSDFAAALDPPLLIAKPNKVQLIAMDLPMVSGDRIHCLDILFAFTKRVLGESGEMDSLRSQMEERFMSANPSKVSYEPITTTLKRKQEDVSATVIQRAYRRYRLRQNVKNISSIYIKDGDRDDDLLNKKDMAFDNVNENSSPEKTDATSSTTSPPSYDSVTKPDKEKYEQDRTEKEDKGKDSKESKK
T2 sequence (Q14524 whole entry): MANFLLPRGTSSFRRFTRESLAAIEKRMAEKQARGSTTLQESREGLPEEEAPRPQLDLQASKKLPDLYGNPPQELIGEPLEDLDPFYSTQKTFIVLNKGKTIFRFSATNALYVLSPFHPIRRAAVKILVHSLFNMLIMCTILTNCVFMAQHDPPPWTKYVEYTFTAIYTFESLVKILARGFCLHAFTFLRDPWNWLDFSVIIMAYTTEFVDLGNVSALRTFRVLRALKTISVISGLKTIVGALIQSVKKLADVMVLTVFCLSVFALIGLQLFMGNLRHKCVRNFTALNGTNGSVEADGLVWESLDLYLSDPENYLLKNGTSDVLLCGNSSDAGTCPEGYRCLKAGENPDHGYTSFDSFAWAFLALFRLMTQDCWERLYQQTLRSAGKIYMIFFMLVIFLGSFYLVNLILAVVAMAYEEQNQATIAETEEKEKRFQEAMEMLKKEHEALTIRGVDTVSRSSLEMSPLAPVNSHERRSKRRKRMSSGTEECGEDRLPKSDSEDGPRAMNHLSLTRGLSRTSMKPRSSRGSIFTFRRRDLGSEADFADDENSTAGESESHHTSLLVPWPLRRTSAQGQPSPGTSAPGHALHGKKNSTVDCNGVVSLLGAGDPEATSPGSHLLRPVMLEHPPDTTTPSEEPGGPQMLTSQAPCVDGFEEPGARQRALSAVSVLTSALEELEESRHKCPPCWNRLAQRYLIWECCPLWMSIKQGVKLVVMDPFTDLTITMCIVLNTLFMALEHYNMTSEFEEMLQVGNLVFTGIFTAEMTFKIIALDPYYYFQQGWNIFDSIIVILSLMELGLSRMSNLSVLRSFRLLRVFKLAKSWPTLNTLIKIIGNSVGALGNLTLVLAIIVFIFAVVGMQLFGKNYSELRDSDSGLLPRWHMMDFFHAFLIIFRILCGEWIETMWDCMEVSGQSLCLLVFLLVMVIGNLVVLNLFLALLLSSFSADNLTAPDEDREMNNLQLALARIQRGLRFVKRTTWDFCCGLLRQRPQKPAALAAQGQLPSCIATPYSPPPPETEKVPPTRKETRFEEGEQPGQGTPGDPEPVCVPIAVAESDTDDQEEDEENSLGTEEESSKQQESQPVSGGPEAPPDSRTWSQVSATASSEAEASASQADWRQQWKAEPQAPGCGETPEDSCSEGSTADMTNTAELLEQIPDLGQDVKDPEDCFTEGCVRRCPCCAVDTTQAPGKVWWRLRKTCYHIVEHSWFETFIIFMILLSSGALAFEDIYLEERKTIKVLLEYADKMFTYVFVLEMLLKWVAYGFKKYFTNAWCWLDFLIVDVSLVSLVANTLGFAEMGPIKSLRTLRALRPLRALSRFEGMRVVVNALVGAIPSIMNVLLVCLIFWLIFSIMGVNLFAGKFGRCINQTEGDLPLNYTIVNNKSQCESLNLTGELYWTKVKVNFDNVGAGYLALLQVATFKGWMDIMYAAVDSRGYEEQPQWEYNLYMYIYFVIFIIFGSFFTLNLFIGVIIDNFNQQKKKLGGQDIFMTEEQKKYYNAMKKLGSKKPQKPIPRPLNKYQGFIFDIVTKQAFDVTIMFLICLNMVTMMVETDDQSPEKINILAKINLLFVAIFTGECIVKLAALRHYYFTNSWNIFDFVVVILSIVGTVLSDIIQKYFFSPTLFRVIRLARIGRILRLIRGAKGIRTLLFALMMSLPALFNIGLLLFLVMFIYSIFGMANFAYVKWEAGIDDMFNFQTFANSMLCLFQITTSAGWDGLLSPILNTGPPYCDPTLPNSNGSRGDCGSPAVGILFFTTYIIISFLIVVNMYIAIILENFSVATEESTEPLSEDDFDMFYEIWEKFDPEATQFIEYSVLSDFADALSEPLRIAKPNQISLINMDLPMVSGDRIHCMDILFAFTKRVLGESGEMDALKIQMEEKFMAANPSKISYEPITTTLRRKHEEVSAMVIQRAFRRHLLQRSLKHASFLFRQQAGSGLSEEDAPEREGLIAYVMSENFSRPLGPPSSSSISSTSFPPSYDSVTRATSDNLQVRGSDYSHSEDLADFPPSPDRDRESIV

Question: Which IC50 [1, 3] does the source give for `NC1CCc2cccc(Cn3c(=O)oc4cc(S(=O)(=O)Nc5ncns5)c(F)cc43)c2C1` (single isomer, unassigned) [Compound 23-27, (S or R)-3-[(7-amino-5,6,7,8-tetrahydronaphthalen-1-yl)methyl]-5-fluoro-2-oxo-N-1,2,4-thiadiazol-5-yl-2,3-dihydro-1,3-benzoxazole-6-sulfonamide] here?
Answer: 0.006 µM

Question: And the “ratio of Nav 1.5:Nav 1.7 potency, determined by PatchXpress measurement” value (“ratio of Nav 1.5:Nav 1.7 potency” below) [2]?
Answer: 29

Question: Which IC50 [1, 3] does the source give for `C[C@H](c1ccccc1C#CCO)n1c(=O)oc2cc(S(=O)(=O)Nc3ncns3)c(F)cc21` [Compound 17-9, 5-fluoro-3-{(1R)-1-[2-(3-hydroxyprop-1-yn-1-yl)phenyl]ethyl}-2-oxo-N-1,2,4-thiadiazol-5-yl-2,3-dihydro-1,3-benzoxazole-6-sulfonamide] here?
Answer: 0.058 µM

Question: And the “ratio of Nav 1.5:Nav 1.7 potency” value [2]?
Answer: 45

Question: What does the source list for `C[C@H](c1cccc2ccncc12)n1c(=O)oc2cc(S(=O)(=O)Nc3ncns3)c(F)cc21` [Compound 14-8, 5-fluoro-3-[(1R)-1-isoquinolin-8-ylethyl]-2-oxo-N-1,2,4-thiadiazol-5-yl-2,3-dihydro-1,3-benzoxazole-6-sulfonamid]?
Answer: IC50 [1, 3]: 0.071 µM; ratio of Nav 1.5:Nav 1.7 potency, determined by PatchXpress measurement [2]: 114

Question: Which IC50 [1, 3] does the source give for `C[C@H](c1cccc(C#CC2(N)CCCCC2)c1)n1c(=O)oc2cc(S(=O)(=O)Nc3ncns3)c(F)cc21` [Compound 30-4] here?
Answer: 0.01 µM

Question: What about the “ratio of Nav 1.5:Nav 1.7 potency” value [2] of the same molecule?
Answer: 309

Question: `C[C@H](c1cccc(-c2ccn(C)n2)c1)n1c(=O)oc2cc(S(=O)(=O)Nc3nccs3)c(F)cc21` [Compound 43-25, 5-fluoro-3-{(1R)-1-[3-(1-methyl-1H-pyrazol-3-yl)phenyl]ethyl}-2-oxo-N-1,3-thiazol-2-yl-2,3-dihydro-1,3-benzoxazole-6-sulfonamide] was tested. Which IC50 [1, 3] did it give?
Answer: 0.306 µM

Question: And the “ratio of Nav 1.5:Nav 1.7 potency” value [2]?
Answer: 86

Question: With `O=c1oc2cc(S(=O)(=O)Nc3nccs3)c(F)cc2n1C1CCCc2ccncc21` (centres unmarked) [Compound 43-3, 5-fluoro-2-oxo-3-(5,6,7,8-tetrahydroisoquinolin-8-yl)-N-1,3-thiazol-2-yl-2,3-dihydro-1,3-benzoxazole-6-sulfonamide] as the molecule, how does the IC50 [1, 3] read?
Answer: 0.55 µM

Question: And the “ratio of Nav 1.5:Nav 1.7 potency” value [2]?
Answer: 91

Question: `C[C@H](c1ccccc1C1=CCNCC1)n1c(=O)oc2cc(S(=O)(=O)Nc3ncns3)c(F)cc21` [Compound 16-4, (R)-5-Fluoro-2-oxo-3-(1-(2-(1,2,3,6-tetrahydropyridin-4-yl)phenyl)ethyl)-N-(1,2,4-thiadiazol-5-yl)-2,3-dihydrobenzo[d]oxazole-6-sulfonamide] was tested. Which IC50 ([1]; potency for the Nav 1.7 sodium ion channel (as measured by PatchXpress)) did it give?
Answer: 0.028 µM

Question: What about the “ratio of Nav 1.5:Nav 1.7 potency” value [2] of the same molecule?
Answer: 296

Question: Which IC50 [1, 3] does the source give for `O=c1oc2cc(S(=O)(=O)Nc3ncns3)c(F)cc2n1Cc1cccc2c1CC(NCCO)CC2` (racemic) [Compound 23-22, (+/−)-5-fluoro-3-({7-[(2-hydroxyethyl)amino]-5,6,7,8-tetrahydronaphthalen-1-yl}methyl)-2-oxo-N-1,2,4-thiadiazol-5-yl-2,3-dihydro-1,3-benzoxazole-6-sulfonamide] here?
Answer: 0.026 µM

Question: What about the “ratio of Nav 1.5:Nav 1.7 potency” value [2] of the same molecule?
Answer: 221

Question: What does the source list for `C[C@H](c1cccc2c1CNCC2)n1c(=O)oc2cc(S(=O)(=O)Nc3nccs3)c(F)cc21` [Compound 43-15, 5-fluoro-2-oxo-3-[(1R)-1-(1,2,3,4-tetrahydroisoquinolin-8-yl)ethyl]-N-1,3-thiazol-2-yl-2,3-dihydro-1,3-benzoxazole-6-sulfonamide]?
Answer: IC50 [1, 3]: 0.08 µM; ratio of Nav 1.5:Nav 1.7 potency, determined by PatchXpress measurement [2]: 147

Question: How did the IC50 [1, 3] turn out when `O=C(c1ccccc1)N1CCC2(CC1)CC(n1c(=O)oc3cc(S(=O)(=O)Nc4ncns4)c(F)cc31)c1cc(F)ccc1O2` (centres unmarked) [Compound 39-9, 5-fluoro-3-[6-fluoro-1′-(phenylcarbonyl)-3,4-dihydrospiro[chromene-2,4′-piperidin]-4-yl]-2-oxo-N-1,2,4-thiadiazol-5-yl-2,3-dihydro-1,3-benzoxazole-6-sulfonamide] was run?
Answer: 0.168 µM

Question: And the “ratio of Nav 1.5:Nav 1.7 potency” value [2]?
Answer: 54

Question: What does the source list for `C[C@H](c1ccccc1C#CCC(C)(C)N)n1c(=O)oc2cc(S(=O)(=O)Nc3ncns3)c(F)cc21` [Compound 17-15, 3-{(1R)-1-[2-(4-amino-4-methylpent-1-yn-1-yl)phenyl]ethyl}-5-fluoro-2-oxo-N-1,2,4-thiadiazol-5-yl-2,3-dihydro-1,3-benzoxazole-6-sulfonamide]?
Answer: IC50 [1, 3]: 0.032 µM; ratio of Nav 1.5:Nav 1.7 potency, determined by PatchXpress measurement [2]: 1566

Question: With `O=c1oc2cc(S(=O)(=O)Nc3ncns3)c(F)cc2n1[C@@H]1C[C@@H](c2ccccc2)Oc2ccccc21` [Compound 39-15, 5-fluoro-2-oxo-3-[(2S,4R)-2-phenyl-3,4-dihydro-2H-chromen-4-yl]-N-1,2,4-thiadiazol-5-yl-2,3-dihydro-1,3-benzoxazole-6-sulfonamide] as the molecule, how does the IC50 [1, 3] read?
Answer: 0.054 µM

Question: What about the “ratio of Nav 1.5:Nav 1.7 potency” value [2] of the same molecule?
Answer: 36

Question: What does the source list for `Nc1cccc2c1CCCC2n1c(=O)oc2cc(S(=O)(=O)Nc3nccs3)c(F)cc21` (centres unmarked) [Compound 43-13, 3-(5-amino-1,2,3,4-tetrahydronaphthalen-1-yl)-5-fluoro-2-oxo-N-1,3-thiazol-2-yl-2,3-dihydro-1,3-benzoxazole-6-sulfonamide]?
Answer: IC50 [1, 3]: 0.405 µM; ratio of Nav 1.5:Nav 1.7 potency, determined by PatchXpress measurement [2]: 74

Question: Which results are given for `Cc1ccc2c(c1)C(n1c(=O)oc3cc(S(=O)(=O)Nc4nccs4)c(F)cc31)CCC2` (centres unmarked) [Compound 43-7, 5-fluoro-3-(7-methyl-1,2,3,4-tetrahydronaphthalen-1-yl)-2-oxo-N-1,3-thiazol-2-yl-2,3-dihydro-1,3-benzoxazole-6-sulfonamide]?
Answer: IC50 [1, 3]: 0.111 µM; ratio of Nav 1.5:Nav 1.7 potency, determined by PatchXpress measurement [2]: 137

Question: Which IC50 [1, 3] does the source give for `C[C@H](c1ccccc1C#CCN)n1c(=O)oc2cc(S(=O)(=O)Nc3nccs3)c(F)cc21` [Compound 43-19, 3-{(1R)-1-[2-(3-aminoprop-1-yn-1-yl)phenyl]ethyl}-5-fluoro-2-oxo-N-1,3-thiazol-2-yl-2,3-dihydro-1,3-benzoxazole-6-sulfonamide] here?
Answer: 0.029 µM

Question: And the “ratio of Nav 1.5:Nav 1.7 potency” value [2]?
Answer: 1267

Question: `C[C@H](c1ccccc1I)n1c(=O)oc2cc(S(=O)(=O)Nc3ncns3)c(F)cc21` [Compound 16-3, (R)-5-Fluoro-3-(1-(2-iodophenyl)ethyl)-2-oxo-N-(1,2,4-thiadiazol-5-yl)-2,3-dihydrobenzo[d]oxazole-6-sulfonamide] was tested. Which IC50 [1, 3] did it give?
Answer: 0.069 µM

Question: What about the “ratio of Nav 1.5:Nav 1.7 potency” value [2] of the same molecule?
Answer: 272

Question: With `O=c1oc2cc(S(=O)(=O)Nc3ncns3)c(F)cc2n1Cc1cccc2c1CC(N1CCOCC1)CC2` (racemic) [Compound 23-16, (+/−)-5-fluoro-3-[(7-morpholin-4-yl-5,6,7,8-tetrahydronaphthalen-1-yl)methyl]-2-oxo-N-1,2,4-thiadiazol-5-yl-2,3-dihydro-1,3-benzoxazole-6-sulfonamide] as the molecule, how does the IC50 [1, 3] read?
Answer: 0.07 µM

Question: And the “ratio of Nav 1.5:Nav 1.7 potency” value [2]?
Answer: 431

Question: For `CCc1cc2c(cc1S(=O)(=O)Nc1ncns1)oc(=O)n2[C@H](C)c1ccccc1` [Compound 38-2, 5-ethyl-2-oxo-3-[(1R)-1-phenylethyl]-N-1,2,4-thiadiazol-5-yl-2,3-dihydro-1,3-benzoxazole-6-sulfonamide], which IC50 [1, 3] is on record?
Answer: 0.094 µM

Question: And the “ratio of Nav 1.5:Nav 1.7 potency” value [2]?
Answer: 17

Question: Which results are given for `O=c1oc2cc(S(=O)(=O)Nc3ncns3)c(F)cc2n1Cc1cccc2c1CC(O)CC2` (centres unmarked) [Compound 21-1, 5-fluoro-3-((7-hydroxy-5,6,7,8-tetrahydronaphthalen-1-yl)methyl)-2-oxo-N-(1,2,4-thiadiazol-5-yl)-2,3-dihydrobenzo[d]oxazole-6-sulfonamide]?
Answer: IC50 [1, 3]: 0.121 µM; ratio of Nav 1.5:Nav 1.7 potency, determined by PatchXpress measurement [2]: 113
